In the NIST ThermoML archive (doi:10.1016/j.fluid.2006.03.015):
± gives the expanded uncertainty stated by the source.

Assay: molar heat capacity at constant pressure
Details: 101.33 kPa, Liquid

CCCCCCn1cc[n+](C)c1.O=S(=O)([O-])C(F)(F)F [1-hexyl-3-methylimidazolium trifluoromethanesulfonate]
Details	molar heat capacity at constant pressure [J/K/mol]
313.14 K, Large sample (1 g) DSC	517 ± 27
315.15 K, Small sample (50 mg) DSC	526 ± 27
318.15 K, Large sample (1 g) DSC	522 ± 27
320.15 K, Small sample (50 mg) DSC	528 ± 27
323.17 K, Large sample (1 g) DSC	525 ± 27
325.15 K, Small sample (50 mg) DSC	530 ± 28
328.13 K, Large sample (1 g) DSC	527 ± 27
328.15 K, modulated-temperature differential scanning calorimetry MDSC	519 ± 26
330.15 K, Small sample (50 mg) DSC	532 ± 28
333.15 K, Large sample (1 g) DSC	528 ± 27
333.15 K, modulated-temperature differential scanning calorimetry MDSC	522 ± 26
335.15 K, Small sample (50 mg) DSC	536 ± 28
338.15 K, modulated-temperature differential scanning calorimetry MDSC	524 ± 26
338.16 K, Large sample (1 g) DSC	531 ± 28
340.15 K, Small sample (50 mg) DSC	539 ± 28
343.15 K, modulated-temperature differential scanning calorimetry MDSC	528 ± 26
343.16 K, Large sample (1 g) DSC	534 ± 28
345.15 K, Small sample (50 mg) DSC	541 ± 28
348.15 K, modulated-temperature differential scanning calorimetry MDSC	530 ± 27
348.16 K, Large sample (1 g) DSC	535 ± 28
350.15 K, Small sample (50 mg) DSC	545 ± 28
353.15 K, modulated-temperature differential scanning calorimetry MDSC	532 ± 27
353.18 K, Large sample (1 g) DSC	539 ± 28
355.15 K, Small sample (50 mg) DSC	548 ± 28
358.12 K, Large sample (1 g) DSC	542 ± 28
358.15 K, modulated-temperature differential scanning calorimetry MDSC	535 ± 27
360.15 K, Small sample (50 mg) DSC	551 ± 29
363.15 K, modulated-temperature differential scanning calorimetry MDSC	538 ± 27
363.17 K, Large sample (1 g) DSC	545 ± 28
365.15 K, Small sample (50 mg) DSC	554 ± 29
368.15 K, Large sample (1 g) DSC	548 ± 28
368.15 K, modulated-temperature differential scanning calorimetry MDSC	540 ± 27
370.15 K, Small sample (50 mg) DSC	556 ± 29
373.15 K, modulated-temperature differential scanning calorimetry MDSC	543 ± 27
373.17 K, Large sample (1 g) DSC	550 ± 29
375.15 K, Small sample (50 mg) DSC	559 ± 29
378.15 K, modulated-temperature differential scanning calorimetry MDSC	544 ± 27
378.17 K, Large sample (1 g) DSC	552 ± 29
380.15 K, Small sample (50 mg) DSC	562 ± 29
383.15 K, modulated-temperature differential scanning calorimetry MDSC	547 ± 27
383.17 K, Large sample (1 g) DSC	555 ± 29
385.15 K, Small sample (50 mg) DSC	565 ± 29
388.15 K, modulated-temperature differential scanning calorimetry MDSC	549 ± 27
388.16 K, Large sample (1 g) DSC	558 ± 29
390.15 K, Small sample (50 mg) DSC	568 ± 30
393.15 K, Large sample (1 g) DSC	560 ± 29
393.15 K, modulated-temperature differential scanning calorimetry MDSC	552 ± 28
395.15 K, Small sample (50 mg) DSC	571 ± 30
398.15 K, modulated-temperature differential scanning calorimetry MDSC	554 ± 28
398.18 K, Large sample (1 g) DSC	562 ± 29
400.15 K, Small sample (50 mg) DSC	574 ± 30
403.15 K, modulated-temperature differential scanning calorimetry MDSC	556 ± 28
403.16 K, Large sample (1 g) DSC	564 ± 29
405.15 K, Small sample (50 mg) DSC	577 ± 30
408.13 K, Large sample (1 g) DSC	566 ± 29
408.15 K, modulated-temperature differential scanning calorimetry MDSC	557 ± 28
410.15 K, Small sample (50 mg) DSC	580 ± 30
413.15 K, modulated-temperature differential scanning calorimetry MDSC	562 ± 28
413.16 K, Large sample (1 g) DSC	569 ± 30
415.15 K, Small sample (50 mg) DSC	583 ± 30
418.15 K, Large sample (1 g) DSC	573 ± 30
420.15 K, Small sample (50 mg) DSC	586 ± 30
423.17 K, Large sample (1 g) DSC	572 ± 30
425.15 K, Small sample (50 mg) DSC	589 ± 31
